The NIST ThermoML archive (doi:10.1016/j.jct.2008.10.002)

Key:
[1] = xn = mol fraction of the nth substance listed; settings: 101.3 kPa, Liquid, Vibrating tube method
[2] = excess molar enthalpy (molar enthalpy of mixing); xn = mol fraction of the nth substance listed; settings: 303.15 K, 101.3 kPa, Liquid
[3] = molar heat capacity at constant pressure; xn = mol fraction of the nth substance listed; settings: 101.3 kPa, Liquid, Small sample (50 mg) DSC

CCOS(=O)(=O)[O-].CCn1cc[n+](C)c1 [1-ethyl-3-methylimidazolium ethyl sulfate] + O
Settings	mass density, [1] [kg/m3]	molar heat capacity at constant pressure, [3] [J/K/mol]
293.15 K, x1 = 0.0477	1084.8	92.6
293.15 K, x1 = 0.1033	1138.7	109.8
293.15 K, x1 = 0.2048	1184.3	140.4
293.15 K, x1 = 0.2943	1203.3	167.1
293.15 K, x1 = 0.3847	1214.7	194.3
293.15 K, x1 = 0.4774	1222.5	222.7
293.15 K, x1 = 0.5797	1228.5	254.6
293.15 K, x1 = 0.6632	1232	281.3
293.15 K, x1 = 0.8092	1236.6	328.9
293.15 K, x1 = 0.907	1238.9	360.9
298.15 K, x1 = 0.0477	1082.3	92.9
298.15 K, x1 = 0.1033	1135.4	110.5
298.15 K, x1 = 0.2048	1180.8	141.4
298.15 K, x1 = 0.2943	1199.8	168.3
298.15 K, x1 = 0.3847	1211.3	195.7
298.15 K, x1 = 0.4774	1219.1	224.2
298.15 K, x1 = 0.5797	1225	256.2
298.15 K, x1 = 0.6632	1228.6	283.1
298.15 K, x1 = 0.8092	1233.2	330.9
298.15 K, x1 = 0.907	1235.5	363.1
303.15 K, x1 = 0.0477	1079.6	93.3
303.15 K, x1 = 0.1033	1132.1	111.2
303.15 K, x1 = 0.2048	1177.2	142.6
303.15 K, x1 = 0.2943	1196.3	169.7
303.15 K, x1 = 0.3847	1207.8	197.1
303.15 K, x1 = 0.4774	1215.6	225.8
303.15 K, x1 = 0.5797	1221.6	258
303.15 K, x1 = 0.6632	1225.2	285
303.15 K, x1 = 0.8092	1229.8	333
303.15 K, x1 = 0.907	1232.1	365.3
308.15 K, x1 = 0.0477	1076.9	93.6
308.15 K, x1 = 0.1033	1128.7	111.9
308.15 K, x1 = 0.2048	1173.6	143.7
308.15 K, x1 = 0.2943	1192.7	171
308.15 K, x1 = 0.3847	1204.3	198.6
308.15 K, x1 = 0.4774	1212.2	227.5
308.15 K, x1 = 0.5797	1218.2	259.9
308.15 K, x1 = 0.6632	1221.8	287.1
308.15 K, x1 = 0.8092	1226.4	335.3
308.15 K, x1 = 0.907	1228.7	367.7
313.15 K, x1 = 0.0477	1073.9	93.9
313.15 K, x1 = 0.1033	1125.3	112.7
313.15 K, x1 = 0.2048	1170	144.9
313.15 K, x1 = 0.2943	1189.2	172.4
313.15 K, x1 = 0.3847	1200.8	200.3
313.15 K, x1 = 0.4774	1208.7	229.3
313.15 K, x1 = 0.5797	1214.8	261.8
313.15 K, x1 = 0.6632	1218.4	289.2
313.15 K, x1 = 0.8092	1223	337.7
313.15 K, x1 = 0.907	1225.3	370.3
318.15 K, x1 = 0.0477	1071	94.4
318.15 K, x1 = 0.1033	1121.8	113.6
318.15 K, x1 = 0.2048	1166.4	146.2
318.15 K, x1 = 0.2943	1185.6	173.9
318.15 K, x1 = 0.3847	1197.3	202
318.15 K, x1 = 0.4774	1205.3	231.2
318.15 K, x1 = 0.5797	1211.3	263.9
318.15 K, x1 = 0.6632	1215	291.6
318.15 K, x1 = 0.8092	1219.6	340.3
318.15 K, x1 = 0.907	1221.9	373

[2]
Settings	excess molar enthalpy [kcal/mol]
x1 = 0.0504	-0.115
x1 = 0.0997	-0.183
x1 = 0.1468	-0.219
x1 = 0.2004	-0.236
x1 = 0.2921	-0.231
x1 = 0.3935	-0.204
x1 = 0.4806	-0.19
x1 = 0.5727	-0.157
x1 = 0.6687	-0.124
x1 = 0.8212	-0.0681

CCn1cc[n+](C)c1.O=S(=O)([O-])C(F)(F)F [1-ethyl-3-methylimidazolium trifluoromethanesulfonate] + O
Settings	mass density, [1] [kg/m3]	molar heat capacity at constant pressure, [3] [J/K/mol]
293.15 K, x1 = 0.0186	1063.6	83.2
293.15 K, x1 = 0.0522	1142.6	94.2
293.15 K, x1 = 0.0995	1208.9	108.1
293.15 K, x1 = 0.2037	1282.4	138
293.15 K, x1 = 0.2952	1315.7	163.5
293.15 K, x1 = 0.3868	1336.6	188.5
293.15 K, x1 = 0.4761	1350.7	213.2
293.15 K, x1 = 0.5771	1362.4	240.9
293.15 K, x1 = 0.6617	1370	264
293.15 K, x1 = 0.8398	1381.8	314.4
293.15 K, x1 = 0.8646	1383.1	321.6
298.15 K, x1 = 0.0186	1061.7	83.1
298.15 K, x1 = 0.0522	1139.6	94.3
298.15 K, x1 = 0.0995	1205.3	108.6
298.15 K, x1 = 0.2037	1278.3	138.9
298.15 K, x1 = 0.2952	1311.5	164.5
298.15 K, x1 = 0.3868	1332.4	189.7
298.15 K, x1 = 0.4761	1346.4	214.5
298.15 K, x1 = 0.5771	1358.1	242.3
298.15 K, x1 = 0.6617	1365.7	265.6
298.15 K, x1 = 0.8398	1377.5	316.3
298.15 K, x1 = 0.8646	1378.8	323.5
303.15 K, x1 = 0.0186	1059.5	83.2
303.15 K, x1 = 0.0522	1136.5	94.6
303.15 K, x1 = 0.0995	1201.6	109.2
303.15 K, x1 = 0.2037	1274.2	139.9
303.15 K, x1 = 0.2952	1307.2	165.6
303.15 K, x1 = 0.3868	1328.1	190.9
303.15 K, x1 = 0.4761	1342.2	215.8
303.15 K, x1 = 0.5771	1353.9	243.8
303.15 K, x1 = 0.6617	1361.5	267.3
303.15 K, x1 = 0.8398	1373.3	318.2
303.15 K, x1 = 0.8646	1374.6	325.5
308.15 K, x1 = 0.0186	1057.2	83.1
308.15 K, x1 = 0.0522	1133.3	94.7
308.15 K, x1 = 0.0995	1197.8	109.6
308.15 K, x1 = 0.2037	1270	140.7
308.15 K, x1 = 0.2952	1303	166.6
308.15 K, x1 = 0.3868	1323.9	192.1
308.15 K, x1 = 0.4761	1337.9	217.1
308.15 K, x1 = 0.5771	1349.7	245.3
308.15 K, x1 = 0.6617	1357.3	269
308.15 K, x1 = 0.8398	1369.1	320.2
308.15 K, x1 = 0.8646	1370.4	327.5
313.15 K, x1 = 0.0186	1054.7	83.2
313.15 K, x1 = 0.0522	1130	95
313.15 K, x1 = 0.0995	1193.9	110.1
313.15 K, x1 = 0.2037	1265.8	141.5
313.15 K, x1 = 0.2952	1298.7	167.7
313.15 K, x1 = 0.3868	1319.6	193.3
313.15 K, x1 = 0.4761	1333.7	218.5
313.15 K, x1 = 0.5771	1345.4	246.9
313.15 K, x1 = 0.6617	1353.1	270.8
313.15 K, x1 = 0.8398	1364.9	322.1
313.15 K, x1 = 0.8646	1366.3	329.6
318.15 K, x1 = 0.0186	1052.1	83.4
318.15 K, x1 = 0.0522	1126.7	95.4
318.15 K, x1 = 0.0995	1190.1	110.6
318.15 K, x1 = 0.2037	1261.6	142.4
318.15 K, x1 = 0.2952	1294.4	168.8
318.15 K, x1 = 0.3868	1315.3	194.6
318.15 K, x1 = 0.4761	1329.4	220
318.15 K, x1 = 0.5771	1341.2	248.5
318.15 K, x1 = 0.6617	1348.9	272.6
318.15 K, x1 = 0.8398	1360.8	324.2
318.15 K, x1 = 0.8646	1362.1	331.7

[2]
Settings	excess molar enthalpy [kcal/mol]
x1 = 0.1012	0.116
x1 = 0.1943	0.19
x1 = 0.2959	0.237
x1 = 0.4031	0.256
x1 = 0.4921	0.253
x1 = 0.5929	0.23
x1 = 0.6997	0.182
x1 = 0.7805	0.144
x1 = 0.844	0.107
